Calls of active or inactive are those of the source.
How the values were obtained:
[1] = molecular target: FAD-linked sulfhydryl oxidase ALR (Homo sapiens, UniProt P55789); experiment: ALR-catalysed DTT oxidation blockers – biochemical, H2O2 detection, luminescence, cherry-pick, dose response (AID 493248)
[2] = molecular target: SWI/SNF-related matrix-associated actin-dependent regulator of chromatin subfamily A member 2 (Homo sapiens, UniProt P51531); experiment: Luminescence-based cell-based high throughput dose response assay to identify activators of the function of SWI/SNF related, matrix associated, actin dependent regulator of chromatin, subfamily a, member 2 (SMARCA2, BRM).; assay type: functional
[3] = Counterscreen for activators of the function of SWI/SNF related, matrix associated, actin dependent regulator of chromatin, subfamily a, member 2 (SMARCA2, BRM): Luminescence-based cell-based high throughput dose response assay to identify non-selective compounds using the VP16 reporter assay.; assay type: functional
Troponin, cardiac muscle = Troponin, cardiac muscle (Homo sapiens, UniProt P19429+P45379+P63316); experiment: Fluorescence-based biochemical high throughput dose response assay for activators of the calcium sensitivity of cardiac Regulated Thin Filaments (RTF). [Related pubchem assays (depositor defined):AID493008, AID493018, AID504382, AID504383]; assay type: protein-complex assay
Protein S100-A4 = Protein S100-A4 (Homo sapiens, UniProt P26447); experiment: human S100A4 peptide interaction inhibition curves – biochemical, fluorescence polarization, cherry-picked hits, dose response (AID 687001); assay type: functional
[4] = molecular target: T1, Sentrin-specific protease 8 (Homo sapiens, UniProt Q96LD8); assay type: functional
T1 sequence (Q96LD8 whole entry): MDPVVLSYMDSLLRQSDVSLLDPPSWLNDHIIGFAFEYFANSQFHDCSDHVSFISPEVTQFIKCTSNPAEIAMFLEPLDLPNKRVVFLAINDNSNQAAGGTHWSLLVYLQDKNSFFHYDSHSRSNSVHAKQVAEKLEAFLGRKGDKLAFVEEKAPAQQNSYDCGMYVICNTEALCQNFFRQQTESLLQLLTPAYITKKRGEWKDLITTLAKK

[5] = molecular target: T1, Sentrin-specific protease 8; assay type: functional; remark: listed apart in the source
Vero = experiment: viability loss in Vero cells – cell-based, plate reader, cherry-pick samples, cytotoxicity control, dose response (AID 687020); assay type: functional; conditions: Chlorocebus sabaeus
[6] = activation of miR-122 Renilla sensor silencing – cell-based, Huh7 psiCHECK-miR122, Renilla luciferase, cherry-picked, dose response (AID 651956); assay type: functional;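 also: huh7 hepatoma cells stably carrying a psiCHECK-2 miR-122 sensor plasmid; renilla luciferase signal reporting endogenous miR-122 activity after 48 h compound exposure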
[7] = TNFa-induced NF-kB reporter signal decrease – HEK293 LMP1 reporter cells, dry powder, set 2, selectivity assay for EBV LMP1 NF-kB inhibitor project, dose response (AID 624369); assay type: functional
[8] = cytotoxicity in HEK293 background cells – cell-based, dry powder, set 2, counter-screen for EBV LMP1 inhibitor project, dose response (AID 624374); assay type: functional
[9] = molecular target: Potassium channel subfamily K member 3 (Homo sapiens, UniProt O14649); experiment: inhibition of human KCNK3 channel flux – CHO cells, FluxOR thallium flux, SAR follow-up (AID 652212); assay type: functional
[10] = molecular target: Potassium channel subfamily K member 9 (Homo sapiens, UniProt Q9NPC2); experiment: KCNK9 flux blockade, concentration-response – cell-based, FluxOR thallium flux, selectivity assay for TASK1 inhibitor project, SAR follow-up (AID 652211); assay type: functional;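 also: potency is for inhibitors of the channel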
[11] = anti-trypanosomal activity in BESM host cells – imaging, CA-I/72 strain, bovine embryo skeletal muscle, dry powder, dose response (AID 651885); assay type: functional, cell-based
[12] = T. cruzi growth inhibition in host cells, dose response, cell-based, plate reader, dry powder, set 2 (AID 652275); assay type: functional

Chain of FAD-linked sulfhydryl oxidase ALR (P55789 whole entry): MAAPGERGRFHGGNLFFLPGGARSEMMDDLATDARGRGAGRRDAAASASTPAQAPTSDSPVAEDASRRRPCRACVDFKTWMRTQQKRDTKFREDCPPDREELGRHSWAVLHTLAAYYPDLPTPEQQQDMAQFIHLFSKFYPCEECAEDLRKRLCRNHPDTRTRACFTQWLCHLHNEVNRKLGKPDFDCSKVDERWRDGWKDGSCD
Chain of Protein S100-A4 (P26447 whole entry): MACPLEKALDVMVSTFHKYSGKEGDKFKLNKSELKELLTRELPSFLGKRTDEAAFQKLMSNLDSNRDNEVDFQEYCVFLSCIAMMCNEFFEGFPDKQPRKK
Chain of Potassium channel subfamily K member 3 (O14649 whole entry): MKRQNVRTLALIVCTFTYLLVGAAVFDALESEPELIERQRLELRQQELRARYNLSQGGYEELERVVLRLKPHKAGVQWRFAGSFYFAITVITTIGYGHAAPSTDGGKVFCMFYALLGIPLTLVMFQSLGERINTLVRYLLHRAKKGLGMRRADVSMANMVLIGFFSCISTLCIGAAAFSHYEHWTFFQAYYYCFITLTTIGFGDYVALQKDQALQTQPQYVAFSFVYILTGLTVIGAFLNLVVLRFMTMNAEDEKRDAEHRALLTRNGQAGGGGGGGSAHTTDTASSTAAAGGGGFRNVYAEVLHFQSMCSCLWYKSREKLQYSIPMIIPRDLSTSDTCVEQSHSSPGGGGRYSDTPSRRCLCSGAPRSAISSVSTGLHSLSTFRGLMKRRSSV
Chain of SWI/SNF-related matrix-associated actin-dependent regulator of chromatin subfamily A member 2 (P51531 whole entry): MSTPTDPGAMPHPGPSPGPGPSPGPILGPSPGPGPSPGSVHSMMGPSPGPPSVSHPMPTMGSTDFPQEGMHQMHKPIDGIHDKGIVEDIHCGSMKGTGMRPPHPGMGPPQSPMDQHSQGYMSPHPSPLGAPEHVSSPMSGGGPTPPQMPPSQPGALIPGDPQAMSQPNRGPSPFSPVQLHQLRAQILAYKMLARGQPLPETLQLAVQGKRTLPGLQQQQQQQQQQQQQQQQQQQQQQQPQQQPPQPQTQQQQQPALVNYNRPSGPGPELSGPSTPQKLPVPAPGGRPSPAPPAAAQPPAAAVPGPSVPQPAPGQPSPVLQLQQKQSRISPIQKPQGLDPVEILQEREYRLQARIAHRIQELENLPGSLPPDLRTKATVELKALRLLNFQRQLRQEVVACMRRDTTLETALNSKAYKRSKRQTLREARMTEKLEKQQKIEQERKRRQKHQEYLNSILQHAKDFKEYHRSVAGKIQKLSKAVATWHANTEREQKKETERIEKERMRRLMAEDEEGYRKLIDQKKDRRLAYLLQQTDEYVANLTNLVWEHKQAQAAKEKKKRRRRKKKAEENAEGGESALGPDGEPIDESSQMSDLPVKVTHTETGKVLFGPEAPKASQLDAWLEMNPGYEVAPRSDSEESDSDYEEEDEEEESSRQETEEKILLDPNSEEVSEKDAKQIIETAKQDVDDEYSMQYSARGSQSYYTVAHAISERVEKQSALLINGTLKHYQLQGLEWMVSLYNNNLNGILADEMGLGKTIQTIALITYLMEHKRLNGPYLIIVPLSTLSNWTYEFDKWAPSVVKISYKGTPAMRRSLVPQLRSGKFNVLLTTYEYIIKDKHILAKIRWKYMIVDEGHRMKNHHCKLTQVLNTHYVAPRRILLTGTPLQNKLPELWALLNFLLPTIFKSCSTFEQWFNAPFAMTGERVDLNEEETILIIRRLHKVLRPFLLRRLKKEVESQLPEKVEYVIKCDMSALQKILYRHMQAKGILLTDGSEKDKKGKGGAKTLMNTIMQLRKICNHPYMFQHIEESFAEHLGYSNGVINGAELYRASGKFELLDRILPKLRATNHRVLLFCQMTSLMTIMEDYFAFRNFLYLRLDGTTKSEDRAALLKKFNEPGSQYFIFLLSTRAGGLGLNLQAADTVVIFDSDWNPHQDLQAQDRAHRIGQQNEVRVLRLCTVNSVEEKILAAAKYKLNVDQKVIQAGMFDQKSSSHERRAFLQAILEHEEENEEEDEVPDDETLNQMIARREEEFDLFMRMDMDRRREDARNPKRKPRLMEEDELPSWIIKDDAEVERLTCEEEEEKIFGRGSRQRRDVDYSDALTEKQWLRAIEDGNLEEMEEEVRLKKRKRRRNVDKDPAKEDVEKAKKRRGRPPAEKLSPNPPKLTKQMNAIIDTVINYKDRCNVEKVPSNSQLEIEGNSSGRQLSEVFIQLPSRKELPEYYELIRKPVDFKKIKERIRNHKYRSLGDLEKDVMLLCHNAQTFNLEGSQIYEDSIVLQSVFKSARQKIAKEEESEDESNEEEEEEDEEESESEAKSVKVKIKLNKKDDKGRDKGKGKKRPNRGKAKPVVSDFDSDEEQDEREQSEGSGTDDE
Chain of Potassium channel subfamily K member 9 (Q9NPC2 whole entry): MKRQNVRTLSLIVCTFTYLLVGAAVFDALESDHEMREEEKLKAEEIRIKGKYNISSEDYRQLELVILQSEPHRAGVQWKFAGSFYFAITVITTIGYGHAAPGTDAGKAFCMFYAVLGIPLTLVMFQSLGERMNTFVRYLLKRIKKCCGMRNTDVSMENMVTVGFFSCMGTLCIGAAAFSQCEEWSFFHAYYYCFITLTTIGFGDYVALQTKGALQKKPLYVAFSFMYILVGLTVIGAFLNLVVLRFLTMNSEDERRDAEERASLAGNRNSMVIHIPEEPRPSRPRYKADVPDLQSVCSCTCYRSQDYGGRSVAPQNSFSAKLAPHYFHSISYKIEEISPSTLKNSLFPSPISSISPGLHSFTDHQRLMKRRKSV

COc1ccc(-n2nnnc2S(=O)(=O)Cc2ccc(C(=O)O)cc2)cc1
AC50 [1]: 38 nM (active) | EC50 [2]: > 91.2 µM (inactive) | EC50 [3]: > 91.2 µM (inactive)

Cc1ccc(N2C3=C(C(=O)CC(C)(C)C3)C(c3cn(C)nc3C)C3=C2CC(C)(C)CC3=O)cc1
EC50 (Troponin, cardiac muscle): 6.28 µM (active) | AC50 (Protein S100-A4): 2.04 µM (active)

CC(NC(=O)COC(=O)c1ccc([N+](=O)[O-])o1)c1ccccc1 (stereo not given)
IC50 [4]: 7.54 µM (active) | IC50 [5]: 11.8 µM (active)

COc1ccc(CC(=O)NCC2CCCN(Cc3ccc(OC(F)(F)F)cc3)C2)cc1 (stereo not given)
AC50 (Vero): 17.1 µM (active)

C[C@H]1CN([C@@H](C)CO)C(=O)c2cc(C#Cc3ccccc3F)cnc2O[C@@H]1CN(C)C(=O)C1CCCCC1
AC50 [6]: 565 nM (active) | AbsAC35 [7]: 66.69 µM

Cc1noc(C)c1S(=O)(=O)Nc1ccc2c(c1)C(=O)N([C@@H](C)CO)C[C@H](C)[C@H](CN(C)Cc1ccc(C(F)(F)F)cc1)OCCCC[C@H](C)O2
AbsAC35 [8]: 149.08 µM

Cc1cccc(C(=O)Nc2cccc(NC(=O)c3cccs3)c2)c1
IC50 [9]: 7 nM (active) | IC50 [10]: 230 nM (active)

C[C@@H]1CN([C@@H](C)CO)C(=O)c2cccc(NC(=O)c3cnccn3)c2O[C@H]1CN(C)Cc1ccc(Oc2ccccc2)cc1
IC50 [11]: > 20 µM (inactive) | AC50 [12]: 1.96 µM (active)

— ChEMBL document CHEMBL1201862, “PubChem BioAssay data set” (2004)
